Legend:
[1] = reversed-phase LC retention time (C18, 15 min MeOH gradient); higher = more hydrophobic / later elution
Protocol: (§1)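 Reference mixture of environmental contaminants analysed by RP-LC (BEH C18, 50 °C; ESI+ with water/MeOH plus formic acid and ammonium formate, ESI- with ammonium bicarbonate) coupled to a timsTOF Pro 2 with trapped ion mobility in nitrogen (ramp/accumulation 100 ms). CCS was calibrated with Agilent tune mix (CCS compendium) and averaged over five injections at 0.5-500 ng/mL. The table reports the lowest-CCS (putative monomer) peak; retention times are on the same gradient.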

[2] = collision cross section (TIMS, N2 drift gas) of the primary ion; higher = larger gas-phase ion size
Protocol: as §1

[3] = ionization mode: ESI+, ion species: [M+H]+
[4] = ionization mode: ESI-, ion species: [M-H]-

| reversed-phase LC retention time [1, 3] | collision cross section [2, 3] | reversed-phase LC retention time [1, 4] | collision cross section [2, 4] | SMILES |
| --- | --- | --- | --- | --- |
| 13.3 min | 178.07 Å² |  |  | COCCCCC(=NOCCN)c1ccc(C(F)(F)F)cc1 [Fluvoxamine] |
| 13.1 min | 165.21 Å² | 14.2 min | 165.62 Å² | CCCSc1ccc2[nH]c(NC(=O)OC)nc2c1 [Albendazole] |
| 9.72 min | 157.64 Å² | 11 min | 158.32 Å² | Cc1ccccc1N=C(N)Nc1ccccc1C [1,3-Di-o-tolylguanidine] |
|  |  | 8.5 min | 167.47 Å² | CCc1cccc(C)c1N(C(=O)CS(=O)(=O)O)[C@@H](C)C(=O)O |
|  |  | 14.5 min | 173.91 Å² | C[C@]12CC[C@@H]3c4ccc(O)cc4CC[C@H]3[C@@H]1CC[C@@H]2O [17-beta-Estradiol] |
|  |  | 8.49 min | 142.13 Å² | O=S(=O)(O)c1ccc2ccccc2c1 [2-Naphthalenesulfonic acid] |
| 13.3 min | 190.78 Å² |  |  | C[C@H]1C[C@@H]2[C@H]([C@@H](O)C[C@@]3(C)[C@H]2CC[C@]3(O)C(=O)CO)[C@@]2(C)C=CC(=O)C=C12 [6alpha-Methylprednisolone] |
| 17.5 min | 216.71 Å² | 16.6 min | 224.72 Å² | CC1(C)[C@@H](O)CC[C@]2(C)[C@H]3C(=O)C=C4[C@@H]5C[C@@](C)(C(=O)O)CC[C@]5(C)CC[C@@]4(C)[C@]3(C)CC[C@@H]12 [Enoxolone] |
| 16.8 min | 202.21 Å² |  |  | CCN(CCC#N)c1ccc(N=Nc2c(Br)cc([N+](=O)[O-])cc2Br)cc1 [Disperse Orange 61] |
| 17 min | 172.78 Å² |  |  | CC(C)OC(=O)CCCCCCCCC(=O)OC(C)C [Diisopropyl sebacate] |
| 10.3 min | 155.33 Å² |  |  | NC(=O)N1c2ccccc2C=Cc2cc(O)ccc21 [2-Hydroxycarbamazepine] |
| 10.3 min | 143.89 Å² |  |  | COc1cc(Cl)c(OC)cc1N [4-Chloro-2,5-dimethoxyaniline] |
|  |  | 4.88 min | 155.56 Å² | NC(=O)c1c(Cl)c(Cl)cc(C(=O)O)c1Cl |
|  |  | 0.97 min | 178.47 Å² | Nc1ccc(/C=C/c2ccc(N)cc2S(=O)(=O)O)c(S(=O)(=O)O)c1 [4,4'-Diaminostilbene-2,2'-disulfonic acid] |
| 16.9 min | 181.22 Å² |  |  | C[C@]12CCC(=O)C=C1CC[C@@H]1[C@@H]2C(=O)C[C@@]2(C)[C@H]1CC[C@]2(O)C(=O)CO [Cortisone] |
| 9.54 min | 160.18 Å² |  |  | CN1CCN2c3ncccc3Cc3ccccc3C2C1 (stereo not given) [Mirtazapine] |

| SMILES | reversed-phase LC retention time [1, 3] | collision cross section [2, 3] | reversed-phase LC retention time [1, 4] | collision cross section [2, 4] |
| --- | --- | --- | --- | --- |
| COc1cc(OC)nc(NC(=O)NS(=O)(=O)c2ncccc2C(=O)N(C)C)n1 [Nicosulfuron] | 11.4 min | 193.46 Å² | 8.07 min | 194.5 Å² |
| CC(C)(C)CC(C)(C)c1cc(-n2nc3ccccc3n2)c(O)c(C(C)(C)c2ccccc2)c1 [UV-928] | 20.4 min | 220.23 Å² |  |  |
| O=C(NCCc1ncc(C(F)(F)F)cc1Cl)c1ccccc1C(F)(F)F [Fluopyram] | 14.7 min | 177.5 Å² | 15.2 min | 179.2 Å² |
| O=C(Nc1ccc(F)cc1F)c1cccnc1Oc1cccc(C(F)(F)F)c1 [Diflufenican] | 16.2 min | 189.49 Å² | 16.7 min | 181.03 Å² |
| COc1cc2c(c3oc(=O)c4c(c13)CCC4=O)C1C=COC1O2 (stereo not given) [Aflatoxin B1] | 11.4 min | 165.23 Å² |  |  |
| Oc1cc(Cl)ccc1Oc1ccc(Cl)cc1Cl [Triclosan] |  |  | 16.8 min | 158.5 Å² |
| Cc1cccc(C)c1N(Cn1cccn1)C(=O)CCl [Metazachlor] | 12.9 min | 159.2 Å² |  |  |
| N#Cc1c[nH]cc1-c1cccc2c1OC(F)(F)O2 [Fludioxonil] |  |  | 14.4 min | 145.03 Å² |

Source: the supplement of paper PMC12613149
